Tested on: insulin-GLase-expressed MIN6 cells (mouse pancreatic β cells)
Experiment: Secretion of insulin-GLase fusion protein from transformed MIN6 cells, luminescence (luciferase) activity in the medium
Assay type: cell-based
Settings: glibenclamide in low glucose-modified KRHB buffer; aliquots taken 0-30 minutes; control 2 mM glucose; FIG. 9
Experimental: Mouse pancreatic β cells, MIN6 strains, were cultured in high glucose DMEM (manufactured by Sigma) supplemented with 10% fetal calf serum (manufactured by Invitrogen) and 50 μM of 2-mercaptoethanol. The expression vector obtained in EXAMPLE 1-1 was transfected to the MIN6 cell line using LipofectAMINE 2000 (manufactured by Invitrogen). After the transfection, the cells were incubated in a CO2 incubator at 37° C. for 24 hours. The secretion expression of the fusion Gaussia luciferase protein in the transformant was confirmed by measuring the luminescence activity with a Luminometer AB2200 (manufactured by Atto Corporation) using coelenterazine as a luminescent substrate, in accordance with the method described in Biochem. Biophys. Res. Commun., 365, 96-101 (2007). As a result, the luminescence activity in the cultured medium by high glucose (20 mM glucose) stimulation to the transformed MIN6 cells increased by about 7 times as compared to that prior to the treatment (FIG. 1). […] Glibenclamide, which is a sulfonylurea type hypoglycemic agent, promotes the secretion of endogenous insulin to lower blood glucose levels. This promotion of insulin secretion was examined using the insulin-GLase-expressed MIN6 cells to assess the effect. […]

With `COc1ccc(Cl)cc1C(=O)NCCc1ccc(S(=O)(=O)NC(=O)NC2CCCCC2)cc1` [glibenclamide, Glibenclamide] the “insulin secretion (luciferase activity of secreted insulin-GLase)” value was “promoted”.

Source: patent publication US9181318B2, “Method of screening a drug such as insulin secretagogue” (JNC Corporation, priority 2009, dated 2015)
